Reference: US8815241B2, “Use of combination of anti-angiogenic substance and c-kit kinase inhibitor” (Eisai R&D Management Co., Ltd., priority 2005, dated 2014)

Tested on: Human gastrointestinal stromal tumor cell line GIST882
Assay: Human cancer cell line subcutaneous xenograft model (GIST882 in nude mouse), combined use
Type: in vivo
Conditions: once a day, for two weeks, orally
Method: Human gastrointestinal stromal tumor cell line GIST882 (supplied by The Brigham and Women's Hospital, Inc.) was cultured in RPMI1640 (containing 10% FBS) in a 5% carbon dioxide incubator to about 80% confluence. Following cultivation, each cell was collected by trypsin-EDTA treatment according to a general method. Using a phosphate buffer containing 50% matrigel, 5×10^7 cells/mL suspension was prepared, and 0.2 mL each of the resulting cell suspension was subcutaneously transplanted into the flank of a nude mouse. Starting from twenty-one days after the transplantation, 4-(3-chloro-4-(cyclopropylaminocarbonyl)aminophenoxy)-7-methoxy-6-quinolinecarboxamide (10 mg/kg or 30 mg/kg, once a day, for two weeks) and imatinib (160 mg/kg, twice a day, for two weeks) were orally administered alone or in combination. […] Tumor Volume (TV)=Major axis of tumor (mm)×(Minor axis of tumor)^2 (mm^2)/2 Relative Tumor Volume (RTV)=Tumor volume on measurement day/Tumor volume on the first administration day

COc1cc2nccc(Oc3ccc(NC(=O)NC4CC4)c(Cl)c3)c2cc1C(N)=O [Compound A, 4-(3-chloro-4-(cyclopropylaminocarbonyl)aminophenoxy)-7-methoxy-6-quinolinecarboxamide]
Relative tumor volume on Day 15, Average ± standard deviation (Compound A 10 mg/kg alone): 2.06 ± 0.16 | Relative tumor volume on Day 15, Average ± standard deviation (Compound A 30 mg/kg alone): 1.36 ± 0.13
